# Test results as given in article PMC12077799, “Fragment-based drug discovery for transthyretin kinetic stabilisers using a novel capillary zone electrophoresis method” (PLOS One, 2025).
# Biological target: T1, Human transthyretin (TTR) thyroxine binding sites (Homo sapiens, UniProt P02766)
# T1 construct: purchased SCIPAC (Sittingbourne, Kent, UK) P171-1
# Experiment: TTR CZE Free Probe Peak Height Restoration (FPPHR) assay, 8-ANS displacement
# Method: CZE assays development and fragment screening were performed on a Beckman P/ACE MDQ capillary electrophoresis system (Beckman Coulter Inc., Brea, CA) operated by 32 Karat™ software. All capillaries (Polymicro Technologies, Phoenix, AZ) used were internally coated with polyvinyl alcohol and of around 30 cm in length, 75 microns in internal diameter. Capillary temperature was maintained at 20 °C by recirculating fluorinated fluid coolant during electrophoresis. Sample trays and buffer trays temperature were maintained at 4°C and ambient respectively. For every electrophoretic run, the capillary was pressure rinsed and prefilled with electrophoresis buffer also known as background electrolyte (termed as Running Buffer hereafter) before injection. After each electrophoretic run, the capillary was rinsed with Running Buffer and H2O by pressure (20 psi for 1 minute). Three Running Buffers (RB), A: 20 mM Tris pH 7.5, 1 mM KCl, 1.62 mM NaCl; B: 20 mM HEPES pH 7.0, 2 mM CaCl2 and C: 20 mM HEPES pH 7.0, 2 mM CaCl2, 1% DMSO were used. All CE traces were analysed by 32Karat™ Software with a built-in automatic peak integration algorithm.
# Control 1 Inject Buffer (IB) containing 30 μM 8-ANS was prepared by mixing 1 μL of 3 mM 8-ANS DMSO stock with 99 μL of Running Buffer B in a 0.2 mL PCR tube. Control 2 Inject Buffer was prepared by mixing 1μL of 3 mM 8-ANS DMSO stock with 20 μL of 100 μM tetrameric TTR stock in Running Buffer B and 79 μL of Running Buffer B. The final concentrations (f/c) were 8-ANS 30 μM, TTR 20 μM and 1% DMSO v/v.
# The maximum Free Probe Peak Height (Control 1 Peak Height) was determined by Outlet Injection (see Fig 1) of Control 1 with an injection pressure of 0.5 psi for 5 seconds (equivalent to ≈ 20–30 nL). An identical injection of Control 2 provides the minimum Free Probe Peak Height (Control 2 Peak Height) enabling calculation of % of bound and unbound, i.e., free 8-ANS. To determine the 8-ANS peak height in Control 1 and Control 2, the capillary was prefilled with Buffer C and electrophoresis carried out at 10 kV (Normal Polarity, Fig 1) with UV monitoring at 230 nm. For displacement analysis, ligand DMSO stock was diluted in Buffer B and used to fill the capillary as the Running Buffer. Electrophoresis commenced after injection of Control 2, thus the injected 8-ANS-TTR complex migrates inside a capillary filled with the test ligand. The observed 8-ANS peak height is defined as Sample Peak Height and the displaced 8-ANS can be calculated as:
# \% of Free Probe Peak Height Restoration= Sample Peak Height−Control 2 Peak Height/Control 1 Peak Height−Control 2 Peak Height
smiles,measurement,setting,value
"c1ccc2c(-c3cn[nH]c3)ccnc2c1 [SFL001535, 4-(3H-pyrazol-4-yl)quinoline]",FPPHR % tested at 10 µM,"compound 10 µM in Running Buffer, 10% minimum for a binder",34.10% tested at 10 µM
same,FPPHR % at 100 μM,"compound 100 μM in Running Buffer, 10% minimum for a binder",64.23%
same,inhibition at 50 µM,read-out: FPPHR % at 50 μM,60.5%
